“And” between values parts separate entries of the source, which are not always exact repeats. Identical values can stand only once. Counter-ions that a name gives are not always drawn. Like-named read-outs stand apart in the source and are kept apart here. Each block holds one molecule with its values, some of them ahead of it.
Key:
[1] = test system: EGF receptor-mediated cell proliferation; test: Combination studies (median effect analysis: IC50, CI, DRI) in cell proliferation assay (MTT assay); conditions: for CI @ ED90: Combination Index at 90% inhibition; for DRI @ ED97: Dose Reduction Index
Text: Studies were initiated to evaluate the ability of various compounds disclosed herein to synergize with several compounds known to inhibit the function of the EGF receptor in a cell proliferation assay (MTT assay).

[2] = target: T1, EGF binding site (Rattus norvegicus, UniProt G3V6K6); test: Inhibition of [125I]EGF binding (EGF inhibitor assay, NovaScreen); conditions: determined at 25 μM; rat liver membranes; result in words
T1 construct: Receptor source was rat liver membranes; tissue NovaScreen BioSciences; host or cells: rat liver membranes
Procedure: Identified compounds, representing various pharmacophore models, were tested for ability to inhibit EGFR at 25 μM.
AD4-compounds were identified using pharmacophore models (see Example 3, Example 4) and then were docked with the binding site of EGFR (SEQ ID NO: 1) that is recognized by defined CDRs of cetuximab. The inhibition of epidermal growth factor binding by AD4-compounds was then determined (NovaScreen BioSciences, Hanover, Md.). Inhibition of EGF binding was determined at 25 μM concentration.
Receptor source was rat liver membranes. The radioligand was [^125I]EGF ([…]) at a final ligand concentration of 0.36 nM. A non-specific determinant was used as EGF—[100 nM]. The reference compound and positive control was EGF. Reactions were carried out in 10 mM HEPES (pH 7.4) containing 0.1% BSA at 25° C. for 60 minutes. The reaction was terminated by rapid vacuum filtration onto glass fiber filters. Radioactivity trapped onto the filters was determined and compared to control values to ascertain any interactions of test compounds with the EGF binding site. The EGF inhibitor assays were modified from, for example, Mukku (1984) J. Biol. Chem. 259, 6543-6546; Duh et al. (1990) World J. Surgery 14, 410-418; Lokeshwar et al. (1989) J. Biol. Chem. 264(32), 19318-19326.

[3] = test system: epithelial carcinoma A431 cell line; test: MTT Cell Proliferation Assay, A431 cells; assay type: cell-based; conditions: for MTT Assay IC50(A431/MDBK): ratio in parentheses: ratio MDBK IC50 / A431 IC50 (selectivity)
Method in brief: (§1)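 Viability was measured by mitochondrial MTT reduction after cells were exposed to compound for 3 days in reduced-serum medium. Inhibition was calculated per plate against 0.5% DMSO controls.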

[4] = test system: MDBK line; test: MTT Cell Proliferation Assay, MDBK cells; assay type: cell-based, bovine
Method in brief: as §1

[5] = target: T2, EGFR (Homo sapiens, UniProt P00533); test: EGFR in-cell Western (ICW) screening protocol (EGFR inhibition assay); assay type: cell-based; set-up: ICW 1 / ICW 2 / ICW Avg: unit not given here; conditions: for ICW Avg / ICW 1 / ICW 2: ICW assay; for ICW Avg: average of runs 1 and 2; for ICW 1: run 1; for ICW 2: run 2; for ICW assay: Table 10
T2 construct: host or cells: A431
Method in brief: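 Serum-starved A431 cells (2 h) were pretreated with compound for 4 h at 37° C, then stimulated with EGF (10 ng/ml final, or 6.6 or 12.5 ng/ml in some runs) for 10 min. After formaldehyde fixation, phospho-EGFR (Tyr1173, or Tyr1045 in some runs) and total EGFR were detected by in-cell Western immunostaining.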

[6] = Homo sapiens, A-431, first value of 'a/b (c)', taken as A431 cells, read-out: MTT Screen, first value of cell
[7] = Bos taurus, MDBK, second value of 'a/b (c)', taken as MDBK cells, read-out: MTT Screen, second value of cell
[8] = Homo sapiens, A-431, A431 cells, first value of cell, read-out: MTT Assay IC50(A431/MDBK): A431
[9] = Bos taurus, MDBK, MDBK cells, second value of cell, read-out: MTT Assay IC50(A431/MDBK): MDBK
[10] = first value of 'a/b (c)', taken as A431 cells, read-out: MTT Screen, first value of cell
[11] = second value of 'a/b (c)', taken as MDBK cells, read-out: MTT Screen, second value of cell
[12] = Homo sapiens, A-431, 72 h, Table 10, first of x/y(ratio): A431, three day treatment, unit not printed (doses in μM), read-out: MTT assay (first value)
[13] = Bos taurus, MDBK, 72 h, Table 10, second of x/y(ratio): MDBK, three day treatment, unit not printed (doses in μM), read-out: MTT assay (second value)
[14] = % Inhibition of EGF dependent EGFR phosphorylation in A431 cells, compound 125 μM in assay

T2 sequence (P00533 25-1210): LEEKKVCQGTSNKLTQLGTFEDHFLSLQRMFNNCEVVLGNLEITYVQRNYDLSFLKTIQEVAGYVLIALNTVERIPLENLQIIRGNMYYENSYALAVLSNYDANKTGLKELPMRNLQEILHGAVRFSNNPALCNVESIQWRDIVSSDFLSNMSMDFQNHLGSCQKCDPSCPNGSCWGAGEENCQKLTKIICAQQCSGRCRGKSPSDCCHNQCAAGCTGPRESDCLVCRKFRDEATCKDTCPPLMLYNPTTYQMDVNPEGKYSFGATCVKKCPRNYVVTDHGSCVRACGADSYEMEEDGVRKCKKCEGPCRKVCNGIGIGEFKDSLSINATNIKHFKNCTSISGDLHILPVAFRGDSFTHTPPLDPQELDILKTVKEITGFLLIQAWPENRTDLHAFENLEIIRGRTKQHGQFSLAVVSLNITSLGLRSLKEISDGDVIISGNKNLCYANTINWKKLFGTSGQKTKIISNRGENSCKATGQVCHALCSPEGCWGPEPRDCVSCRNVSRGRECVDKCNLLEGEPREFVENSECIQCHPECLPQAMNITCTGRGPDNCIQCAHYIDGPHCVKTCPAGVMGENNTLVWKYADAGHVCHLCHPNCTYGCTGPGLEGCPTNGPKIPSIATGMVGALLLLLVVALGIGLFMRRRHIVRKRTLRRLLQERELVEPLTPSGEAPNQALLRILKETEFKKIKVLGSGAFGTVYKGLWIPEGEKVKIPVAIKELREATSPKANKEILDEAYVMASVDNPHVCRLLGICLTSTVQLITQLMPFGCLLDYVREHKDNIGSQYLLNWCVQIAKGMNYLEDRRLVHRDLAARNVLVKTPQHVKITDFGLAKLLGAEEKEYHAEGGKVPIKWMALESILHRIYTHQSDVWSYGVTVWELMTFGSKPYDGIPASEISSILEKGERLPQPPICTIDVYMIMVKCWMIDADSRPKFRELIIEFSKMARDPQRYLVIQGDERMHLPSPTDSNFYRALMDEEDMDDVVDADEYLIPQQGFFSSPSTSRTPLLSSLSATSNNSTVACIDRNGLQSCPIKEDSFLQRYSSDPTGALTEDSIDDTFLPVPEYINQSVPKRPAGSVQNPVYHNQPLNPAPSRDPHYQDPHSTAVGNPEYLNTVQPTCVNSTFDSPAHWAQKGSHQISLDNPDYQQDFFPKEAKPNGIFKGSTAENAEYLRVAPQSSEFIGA
T1 sequence (G3V6K6 25-1209): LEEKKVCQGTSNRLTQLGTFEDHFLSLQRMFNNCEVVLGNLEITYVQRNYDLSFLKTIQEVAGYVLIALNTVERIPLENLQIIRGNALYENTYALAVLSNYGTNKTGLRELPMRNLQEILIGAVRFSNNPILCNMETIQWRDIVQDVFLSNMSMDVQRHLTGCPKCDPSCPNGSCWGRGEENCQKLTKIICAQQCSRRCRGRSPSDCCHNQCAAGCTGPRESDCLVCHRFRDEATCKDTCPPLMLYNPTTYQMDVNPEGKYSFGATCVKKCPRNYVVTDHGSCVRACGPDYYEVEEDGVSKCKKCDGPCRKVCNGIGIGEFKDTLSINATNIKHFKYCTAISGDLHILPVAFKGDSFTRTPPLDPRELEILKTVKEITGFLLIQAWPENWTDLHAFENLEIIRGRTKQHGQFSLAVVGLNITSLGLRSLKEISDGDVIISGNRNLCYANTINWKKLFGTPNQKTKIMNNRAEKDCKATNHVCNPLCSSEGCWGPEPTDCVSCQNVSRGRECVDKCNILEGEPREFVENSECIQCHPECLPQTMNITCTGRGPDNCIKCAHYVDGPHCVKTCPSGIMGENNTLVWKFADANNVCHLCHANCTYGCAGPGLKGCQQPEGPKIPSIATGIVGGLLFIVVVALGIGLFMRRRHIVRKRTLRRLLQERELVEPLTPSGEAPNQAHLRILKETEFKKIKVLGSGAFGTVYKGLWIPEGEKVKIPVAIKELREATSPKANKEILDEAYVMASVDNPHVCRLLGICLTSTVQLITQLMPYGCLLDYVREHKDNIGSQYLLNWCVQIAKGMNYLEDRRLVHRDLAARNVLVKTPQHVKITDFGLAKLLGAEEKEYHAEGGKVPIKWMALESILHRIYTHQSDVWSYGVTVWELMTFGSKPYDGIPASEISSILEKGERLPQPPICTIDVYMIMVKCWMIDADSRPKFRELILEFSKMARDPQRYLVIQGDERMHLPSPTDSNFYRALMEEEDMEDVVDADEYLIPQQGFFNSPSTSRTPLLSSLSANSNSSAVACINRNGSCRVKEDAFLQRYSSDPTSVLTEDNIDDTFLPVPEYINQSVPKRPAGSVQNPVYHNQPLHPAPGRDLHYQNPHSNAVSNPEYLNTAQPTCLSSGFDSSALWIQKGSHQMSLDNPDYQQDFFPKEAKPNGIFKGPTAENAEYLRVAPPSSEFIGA

Structure (SMILES): Cc1cccc(NC(c2ccc(C(F)(F)F)cc2)c2ccc3cccnc3c2O)n1 (stereo not shown) [AD4-10628]
CI @ ED90 ([1]; combination with Iressa): 0.91 | CI @ ED90 ([1]; combination with Tykerb): 0.55 | DRI @ ED97 ([1]; effect of the test compound on Iressa): 105 | DRI @ ED97 ([1]; effect of the test compound on Tykerb): 126

Structure (SMILES): Cc1ccc2c(C)nc(Nc3nc(-c4ccccc4)cc(=O)[nH]3)nc2c1 [AD4-10381]
inhibition of epidermal growth factor binding to its receptor [2]: inhibitor of epidermal growth factor binding to its receptor

Structure (SMILES): CS(=O)(=O)CCNCc1ccc(-c2ccc3ncnc(Nc4ccc(OCc5cccc(F)c5)c(Cl)c4)c3c2)o1 [Tykerb, reference compound]
effect of Tykerb on the test compound (DRI as a function of Fa) [1]: little effect on AD4-10628 | IC50 ([1]; read-out: IC50 Tykerb): 0.178 µM and 0.189 µM and 0.307 µM

Structure (SMILES): C#Cc1cccc(Nc2ncnc3cc(OCCOC)c(OCCOC)cc23)c1 [Tarceva, reference compound]
synergism with Tykerb [1]: did not produce synergistic effects

Structure (SMILES): C=CCc1c(C)nc(Nc2nc(C)c3cccc(C)c3n2)[nH]c1=O [12607 + TFA]
IC50 [3, 8]: 16.6 µM | MTT Assay IC50(A431/MDBK): ratio in parentheses [3]: 0.71 | IC50 [4, 9]: 11.8 µM | ICW Avg [5]: 32.62 | ICW 1 [5]: 38.40 | ICW 2 [5]: 26.85

Structure (SMILES): COc1cccc2c(C)nc(Nc3nc(C)c(C)c(=O)[nH]3)nc12 [compound 12615]
IC50 [3, 8]: 5.12 µM | MTT Assay IC50(A431/MDBK): ratio in parentheses [3]: 1.16 | IC50 [4, 9]: 5.93 µM | ICW Avg [5]: 29.24 | ICW 1 [5]: 31.59 | ICW 2 [5]: 26.88

Structure (SMILES): Cc1ccc2[nH]c(Nc3nc(C)cc(-c4ccccc4)n3)nc(=O)c2c1 [compound 11315]
MTT Assay IC50(A431/MDBK): ratio in parentheses [3]: very selective | MTT Assay, MDBK percent at a single concentration ([4]; MDBK, at 100 μM): 20% | ICW Avg [5]: 49.58 | ICW 1 [5]: 48.33 | ICW 2 [5]: 50.82

Structure (SMILES): Cc1ccc(NS(=O)(=O)c2ccc(NC(=S)NC(=O)C3CCC3)cc2)cc1C [AD4-11422]
IC50 [3, 10]: 29.5 µM | IC50 [4, 11]: 9.23 µM | ICW Screen (ICW Inhibition) [5]: 44.982

Structure (SMILES): Cc1ccccc1C(=O)NC(=S)Nc1ccc(S(=O)(=O)Nc2ccccc2)cc1 [AD4-10706]
IC50 [3, 6]: 15.1 µM | IC50 [4, 7]: 23.1 µM | ICW Screen (ICW Inhibition) [5]: 55.497

Structure (SMILES): Cc1cc(C)c(NS(=O)(=O)c2ccc(NC(=S)Nc3ccc(S(C)(=O)=O)cc3)cc2)c(C)c1 [AD4-11427]
IC50 [3, 12]: 12 µM | IC50 [4, 13]: 14.5 µM | ICW assay [5, 14]: 44.904

More lines, main results first:

IC50 [3, 6]: 11.8 µM | ICW Screen (ICW Inhibition) [5]: 33.635
Structure (SMILES): Cc1cc(Cl)ccc1OCC(=O)NC(=S)Nc1ccc(S(=O)(=O)N2CCCCC2)cc1 [AD4-11402]
IC50 [4, 7]: 17.4 µM

IC50 [3, 6]: 22.8 µM | ICW Screen (ICW Inhibition) [5]: 39.873
Structure (SMILES): O=C(NC(=S)Nc1ccc(S(=O)(=O)NCCc2ccccc2)cc1)C1CC1 [AD4-10120]
IC50 [4, 7]: 39.3 µM

IC50 ([3]; Homo sapiens, A-431, Table 11, first of x/y(ratio): A431, unit not printed (doses in μM), read-out: MTT Screen (first value)): 16.5 µM | ICW Screen ([5]; Table 11, % Inhibition of EGF dependent EGFR phosphorylation in A431 cells, compound 125 μM in assay): 39.389
Structure (SMILES): CCc1cc2c(CN3CCN(c4ccc(OC)cc4)CC3)cc(=O)oc2cc1O [AD4-10171]
IC50 ([4]; Bos taurus, MDBK, Table 11, second of x/y(ratio): MDBK, unit not printed (doses in μM), read-out: MTT Screen (second value)): 21 µM

IC50 [3, 12]: 4.06 µM | ICW assay [5, 14]: 53.1391
Structure (SMILES): Cc1cc(C)cc(NC(=S)Nc2ccc(S(=O)(=O)Nc3cc(Cl)cc(Cl)c3)cc2)c1 [AD4-12461]
IC50 [4, 13]: 5.91 µM

IC50 [3, 10]: 15.4 µM | ICW Screen (ICW Inhibition) [5]: 53.517
Structure (SMILES): O=C(Cc1ccccc1)NC(=S)Nc1ccc(S(=O)(=O)Nc2ccccc2)cc1 [AD4-11416]
IC50 [4, 11]: 13.5 µM

— patent US20140179681A1, “METHODS AND COMPOSITIONS OF TARGETED DRUG DEVELOPMENT” (priority 2010, published 2014)
